Reference: US20080249077A1, “17.Beta.-Fluoromethoxycarbonyl-Androst-4-En-3-One Compounds With a 17.Alpha.-Carbonate Sustituent” (priority 2005, published 2008)

Biological target: T1, glucocorticoid receptor (Homo sapiens, UniProt P04150)
T1 construct: A549 cells stably transfected with a reporter gene; endogenous in cells; host or cells: A549 cells
T1 sequence (P04150 1-777): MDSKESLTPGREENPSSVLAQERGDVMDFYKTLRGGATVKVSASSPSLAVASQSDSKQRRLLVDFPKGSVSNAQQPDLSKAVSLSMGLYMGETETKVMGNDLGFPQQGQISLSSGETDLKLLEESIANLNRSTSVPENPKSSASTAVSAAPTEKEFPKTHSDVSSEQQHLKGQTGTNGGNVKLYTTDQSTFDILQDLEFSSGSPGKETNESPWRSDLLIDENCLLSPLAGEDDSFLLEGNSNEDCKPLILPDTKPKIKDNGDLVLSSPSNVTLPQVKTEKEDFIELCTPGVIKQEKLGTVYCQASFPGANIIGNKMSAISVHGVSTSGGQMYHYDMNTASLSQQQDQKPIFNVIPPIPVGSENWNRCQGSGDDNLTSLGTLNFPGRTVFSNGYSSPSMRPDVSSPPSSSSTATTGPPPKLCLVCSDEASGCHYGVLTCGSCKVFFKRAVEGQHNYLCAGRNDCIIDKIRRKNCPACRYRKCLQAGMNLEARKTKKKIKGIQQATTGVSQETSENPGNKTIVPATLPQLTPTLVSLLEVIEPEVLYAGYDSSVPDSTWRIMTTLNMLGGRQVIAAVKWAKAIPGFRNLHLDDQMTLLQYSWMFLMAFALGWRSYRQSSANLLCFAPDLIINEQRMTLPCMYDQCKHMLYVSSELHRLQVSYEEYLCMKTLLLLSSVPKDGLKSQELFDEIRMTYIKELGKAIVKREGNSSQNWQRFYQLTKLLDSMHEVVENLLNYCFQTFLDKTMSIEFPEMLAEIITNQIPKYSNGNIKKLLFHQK
Assay: Assay for transactivation activity of the glucocorticoid agonists (MMTV-LTR renilla luciferase reporter in A549 cells)
Format: cell-based
Conditions: compound 6 hour at 37° C., read-out: maximal response relative to Dexamethasone (100%) (transactivation)
Experimental: Assay for Transactivation Activity of the Glucocorticoid Agonists
The functional assay based on that described by R. J. H. Austin et al., Eur Resp J. (2002), 20, 1386-1392 measures the ability of compounds to directly transactivate gene expression. A549 cells stably transfected with a reporter gene containing the glucocorticoid responsive region of the mouse mammary tumour virus long terminal repeat (MMTV-LTR) coupled to renilla luciferase were treated with test compounds at appropriate doses for 6 hour at 37° C. The amount of luciferase activity present within the cells is then determined by measuring the light emitted following incubation with a suitable substrate. Dose response curves were constructed from which EC50 values were estimated and from which maximal responses are calculated relative to Dexamethasone (100%).

Compound	Emax [%]
CCC(OC(=O)O[C@]1(C(=O)OCF)[C@H](C)C[C@H]2[C@@H]3C[C@H](F)C4=CC(=O)C=C[C@]4(C)[C@@]3(F)[C@@H](O)C[C@@]21C)C1CCCC1 (stereo partly drawn) [Example 20, Fluoromethyl(6α,11β,16α,17α)-17-({[(1-cyclopentylpropyl)oxy]carbonyl}oxy)-6,9-difluoro-11-hydroxy-16-methyl-3-oxoandrosta-1,4-diene-17-carboxylate]	< 25
C[C@@H]1C[C@H]2[C@@H]3C[C@H](F)C4=CC(=O)C=C[C@]4(C)[C@@]3(F)[C@@H](O)C[C@]2(C)[C@@]1(OC(=O)OC1CCCCCCC1)C(=O)OCF [Example 16, Fluoromethyl(6α,11β,16α,17α)-17-{[(cyclooctyloxy)carbonyl]oxy}-6,9-difluoro-11-hydroxy-16-methyl-3-oxoandrosta-1,4-diene-17-carboxylate]	< 25
C[C@@H]1C[C@H]2[C@@H]3C[C@H](F)C4=CC(=O)C=C[C@]4(C)[C@@]3(F)[C@@H](O)C[C@]2(C)[C@@]1(OC(=O)O[C@H]1C[C@H]2CC[C@]1(C)C2(C)C)C(=O)OCF [Example 28, Fluoromethyl(6α,11β,16α,17α)-6,9-difluoro-11-hydroxy-16-methyl-3-oxo-17-[({[(1R,2S,4R)-1,7,7-trimethylbicyclo[2.2.1]hept-2-yl]oxy}carbonyl)oxy]androsta-1,4-diene-17-carboxylate]	< 25
CCCC(CCC)OC(=O)O[C@]1(C(=O)OCF)[C@H](C)C[C@H]2[C@@H]3C[C@H](F)C4=CC(=O)C=C[C@]4(C)[C@@]3(F)[C@@H](O)C[C@@]21C [Example 22, Fluoromethyl(6α,11β,16α,17α)-6,9-difluoro-11-hydroxy-16-methyl-3-oxo-17-({[(1-propylbutyl)oxy]carbonyl}oxy)androsta-1,4-diene-17-carboxylate]	< 25
CCCC(OC(=O)O[C@]1(C(=O)OCF)[C@H](C)C[C@H]2[C@@H]3C[C@H](F)C4=CC(=O)C=C[C@]4(C)[C@@]3(F)[C@@H](O)C[C@@]21C)C(C)C (stereo partly drawn) [Example 25, Fluoromethyl(6α,11β,16α,17α)-6,9-difluoro-11-hydroxy-16-methyl-17-[({[1-(1-methylethyl)butyl]oxy}carbonyl)oxy]-3-oxoandrosta-1,4-diene-17-carboxylate]	< 25
CC1CC2C3CC(F)C4=CC(=O)C=CC4(C)C3(F)C(O)CC2(C)C1(OC(=O)OC1CC2CCC1C2)C(=O)OCF (stereo not drawn) [Example 12, Fluoromethyl(6α,11β,16α,17α)-17-({[(1RS,2RS,4SR)-bicyclo[2.2.1]hept-2-yloxy]carbonyl}oxy)-6,9-difluoro-11-hydroxy-16-methyl-3-oxoandrosta-1,4-diene-17-carboxylate]	< 25
C[C@@H]1C[C@H]2[C@@H]3C[C@H](F)C4=CC(=O)C=C[C@]4(C)[C@@]3(F)[C@@H](O)C[C@]2(C)[C@@]1(OC(=O)OC1CCCC(C)(C)C1)C(=O)OCF (stereo partly drawn) [Example 19, Fluoromethyl(6α,11β,16α,17α)-17-({[(3,3-dimethylcyclohexyl)oxy]carbonyl}oxy)-6,9-difluoro-11-hydroxy-16-methyl-3-oxoandrosta-1,4-diene-17-carboxylate]	< 25
C[C@@H]1C[C@H]2[C@@H]3C[C@H](F)C4=CC(=O)C=C[C@]4(C)[C@@]3(F)[C@@H](O)C[C@]2(C)[C@@]1(OC(=O)OCC(C)(C)C)C(=O)OCF [Example 7, Fluoromethyl(6α,11β,16α,17α)-17-({[(2,2-dimethylpropyl)oxy]carbonyl}oxy)-6,9-difluoro-11-hydroxy-16-methyl-3-oxoandrosta-1,4-diene-17-carboxylate]	< 25
C[C@@H]1C[C@H]2[C@@H]3C[C@H](F)C4=CC(=O)C=C[C@]4(C)[C@@]3(F)[C@@H](O)C[C@]2(C)[C@@]1(OC(=O)OC1C(C)(C)C1(C)C)C(=O)OCF [Example 26, Fluoromethyl(6α,11β,16α,17α)-6,9-difluoro-11-hydroxy-16-methyl-3-oxo-17-({[(2,2,3,3-tetramethylcyclopropyl)oxy]carbonyl}oxy)androsta-1,4-diene-17-carboxylate]	< 25
C[C@@H]1C[C@H]2[C@@H]3C[C@H](F)C4=CC(=O)C=C[C@]4(C)[C@@]3(F)[C@@H](O)C[C@]2(C)[C@@]1(OC(=O)OC1CCCC1)C(=O)OCF [Example 31, Fluoromethyl(6α,11β,16α,17α)-17-{[(cyclopentyloxy)carbonyl]oxy}-6,9-difluoro-11-hydroxy-16-methyl-3-oxoandrosta-1,4-diene-17-carboxylate]	< 25
C[C@@H]1C[C@H]2[C@@H]3C[C@H](F)C4=CC(=O)C=C[C@]4(C)[C@@]3(F)[C@@H](O)C[C@]2(C)[C@@]1(OC(=O)O[C@H]1C(C)(C)[C@H]2CC[C@]1(C)C2)C(=O)OCF [Example 33, Fluoromethyl(6α,11β,16α,17α)-6,9-difluoro-11-hydroxy-16-methyl-3-oxo-17-[({[(1R,2R,4S)-1,3,3-trimethylbicyclo[2.2.1]hept-2-yl]oxy}carbonyl)oxy]androsta-1,4-diene-17-carboxylate]	< 25
CC[C@H]1CC[C@@H](OC(=O)O[C@]2(C(=O)OCF)[C@H](C)C[C@H]3[C@@H]4C[C@H](F)C5=CC(=O)C=C[C@]5(C)[C@@]4(F)[C@@H](O)C[C@@]32C)CC1 (relative stereo) [Example 36, Fluoromethyl(6α,11β,16α,17α)-17-({[(cis-4-ethylcyclohexyl)oxy]carbonyl}oxy)-6,9-difluoro-11-hydroxy-16-methyl-3-oxoandrosta-1,4-diene-17-carboxylate]	< 25
C[C@@H]1C[C@H]2[C@@H]3C[C@H](F)C4=CC(=O)C=C[C@]4(C)[C@@]3(F)[C@@H](O)C[C@]2(C)[C@@]1(OC(=O)O[C@@H]1C[C@@H]2CC[C@@]1(C)C2(C)C)C(=O)OCF [Example 27, Fluoromethyl(6α,11β,16α,17α)-6,9-difluoro-11-hydroxy-16-methyl-3-oxo-17-[({[(1S,2R,4S)-1.7.7-trimethylbicyclo[2.2.1]hept-2-yl]oxy}carbonyl)oxy]androsta-1,4-diene-17-carboxylate]	< 25
CC1CCCCC1OC(=O)OC1(C(=O)OCF)C(C)CC2C3CC(F)C4=CC(=O)C=CC4(C)C3(F)C(O)CC21C (stereo not drawn) [Example 10, Fluoromethyl(6α,11β,16α,17α)-6,9-difluoro-11-hydroxy-16-methyl-17-[({[(1SR,2RS)-2-methylcyclohexyl]oxy}carbonyl)oxy]-3-oxoandrosta-1,4-diene-17-carboxylate]	< 25
CCC(CC)OC(=O)O[C@]1(C(=O)OCF)[C@H](C)C[C@H]2[C@@H]3C[C@H](F)C4=CC(=O)C=C[C@]4(C)[C@@]3(F)[C@@H](O)C[C@@]21C [Example 4, Fluoromethyl(6α,11β,16α,17α)-17-({[(1-ethylpropyl)oxy]carbonyl}oxy)-6,9-difluoro-11-hydroxy-16-methyl-3-oxoandrosta-1,4-diene-17-carboxylate]	< 25
CC1CC2C3CC(F)C4=CC(=O)C=CC4(C)C3(F)C(O)CC2(C)C1(OC(=O)OC1CC2CCC1(C)C2(C)C)C(=O)OCF [Example 29, Fluoromethyl(6α,11β,16α,17α)-6,9-difluoro-11-hydroxy-16-methyl-3-oxo-17-[({[(1R,2R,4R)-1,7,7-trimethylbicyclo[2.2.1]hept-2-yl]oxy}carbonyl)oxy]androsta-1,4-diene-17-carboxylate]	< 25
CC(OC(=O)O[C@]1(C(=O)OCF)[C@H](C)C[C@H]2[C@@H]3C[C@H](F)C4=CC(=O)C=C[C@]4(C)[C@@]3(F)[C@@H](O)C[C@@]21C)C(C)(C)C (stereo partly drawn) [Example 23, Fluoromethyl(6α,11β,16α,17α)-6,9-difluoro-11-hydroxy-16-methyl-3-oxo-17-({[(1,2,2-trimethylpropyl)oxy]carbonyl}oxy)androsta-14-diene-17-carboxylate]	< 25
COC1CCCCC1OC(=O)OC1(C(=O)OCF)C(C)CC2C3CC(F)C4=CC(=O)C=CC4(C)C3(F)C(O)CC21C (stereo not drawn) [Example 18, Fluoromethyl(6α,11β,16α,17α)-6,9-difluoro-11-hydroxy-16-methyl-17-[({[(1RS,2RS)-2-(methyloxy)cyclohexyl]oxy}carbonyl)oxy]-3-oxoandrosta-1,4-diene-17-carboxylate]	< 25
